According to patent publication US20070275935A1, “Estratriene Derivatives” (priority 2003, published 2007):
Where two headings read alike, the source gives them in different places.

Legend:
[1] = test system: Human airway smooth muscle (HASM) cells; experiment: Thrombin-induced proliferation of human airway smooth muscle (HASM) cells, cell number after 48 h; type: cell-based; settings: for HASM- Thr pIC25 / HASM- Thr pIC75: two site model, thrombin-induced proliferation; for HASM- Thr pIC25: first phase (inhibition up to 50%); for HASM- Thr pIC75: second phase (inhibition up to 100%); for IC50: Homo sapiens, read-out: HASM-Thr pIC50 (converted)
Description: Human airway smooth muscle (HASM) cells were cultured from macroscopically normal bronchi (0.5-2 cm diameter) obtained from lung resection or heart-lung transplant specimens provided by the Alfred Hospital (Melbourne) according to methods published in detail previously (Fernandes et al., 1999).
Approximately 0.1 g of smooth muscle was stripped from the wall of the bronchus for each cell culture. Dissected tissue was immersed in Dulbecco's modified Eagle's medium (DMEM) (Flow Laboratories, Scotland), supplemented with 100 U/mL penicillin G (CSL, Australia) and 100 ug/mL streptomycin (CSL, Australia). The tissue was rinsed in phosphate buffered saline (PBS; Oxoid, England) and the airway smooth muscle was chopped into 2 mm^3 pieces and digested for 2 hours in DMEM containing elastase (0.5 mg/mL: Worthington Biochemical, USA) followed by a 12 hour incubation in DMEM containing collagenase (1 mg/mL) (Worthington Biochemical, USA), at 37° C. with agitation.
The resulting cell suspension was centrifuged and washed three times in phosphate buffered saline (PBS). Following the last centrifugation step, the cells were resuspended in 25 mL of DMEM supplemented with L-glutamine (2 mM: Sigma, USA), penicillin G (100 U/mL), streptomycin (100 μg/mL), amphotericin B (2 μg/mL: Wellcome, UK) and heat-inactivated FCS (10% v/v: CSL, Australia) and seeded into 25 cm^2 culture flasks. The primary isolates were incubated for 7 to 14 days to reach confluence.
Cells were harvested weekly by 10 min exposure to trypsin (0.5%: CSL, Australia) and EDTA (1 mM in PBS: BDH, Australia) and passaged at a 1:3 ratio into 75 cm^2 flasks.
The activity of the compounds has been established in cell culture by exploring their effects on mitogen-induced increases in cell number. We investigated the effects of 2MEO and its analogues, 4NO and 4NOM, on the proliferation of HASM cells in response to the proliferative stimulus of either thrombin of basic fibroblast growth factor (bFGF). Cells were seeded onto 6-well plates at a density of 1.5×10^4 cells cm^2, made quiescent by removal of serum-containing media for 24 hours and then stimulated for 48 h with either thrombin (0.3 U/ml) or bFGF (300 pM). The test compounds were pre-incubated with HASM cells for 30 minutes before the addition of thrombin. At the end of the 48 hour incubation period, cells were detached from the culture plate by trypsin (0.5% w/v in PBS containing 1 mM EDTA), incubated for 5 minutes at ambient temperature in PBS containing 0.5% (w/v) trypan blue, washed twice (2% FCS in PBS), isolated by centrifugation (12,000×g, 5 min) and resuspended in 200 μl 2% FCS in PBS for counting in a haemocytometer chamber.
Data are expressed as a percentage of the cell number in vehicle treated wells and are presented as the mean and standard error of the mean.
The potency of the compounds in regulating thrombin-induced proliferation of human airway smooth muscle (HASM) was assessed in cells maintained in culture as described above. The potencies are presented as pIC50 values (Column A of Table 4) denoting the negative log of the concentration that reduces the proliferative response by 50%. […] When the single phase model was determined to be more appropriate, the values of pIC25 and pIC75 were not calculated or shown in the table.

[2] = test system: GM-CSF production by Human Airway Smooth Muscle Cells; experiment: Interleukin-1α-mediated GM-CSF production by HASM cells (ELISA); type: cell-based; settings: inhibition of interleukin-1α (1 ng/ml)-mediated GM-CSF production; concentration not given; * not defined
Estrogen Receptor (ER) = biological target: T1, Estrogen Receptor (ER) (Rattus norvegicus, UniProt P06211); experiment: Estrogen receptor binding assay, 3H-estradiol displacement from rat uterine cytosol; settings: 3H-estradiol displacement, cytosolic preparations of rat uterus; pIC50 of 4.00 = inactive; read-out: ER-RLB pIC50 (converted)
T1 construct: using rat uterine cytosol as a source of ER; from tissue; host or cells: rat uterus, cytosol fraction (30000 x g supernatant)
T1 sequence (P06211 1-600): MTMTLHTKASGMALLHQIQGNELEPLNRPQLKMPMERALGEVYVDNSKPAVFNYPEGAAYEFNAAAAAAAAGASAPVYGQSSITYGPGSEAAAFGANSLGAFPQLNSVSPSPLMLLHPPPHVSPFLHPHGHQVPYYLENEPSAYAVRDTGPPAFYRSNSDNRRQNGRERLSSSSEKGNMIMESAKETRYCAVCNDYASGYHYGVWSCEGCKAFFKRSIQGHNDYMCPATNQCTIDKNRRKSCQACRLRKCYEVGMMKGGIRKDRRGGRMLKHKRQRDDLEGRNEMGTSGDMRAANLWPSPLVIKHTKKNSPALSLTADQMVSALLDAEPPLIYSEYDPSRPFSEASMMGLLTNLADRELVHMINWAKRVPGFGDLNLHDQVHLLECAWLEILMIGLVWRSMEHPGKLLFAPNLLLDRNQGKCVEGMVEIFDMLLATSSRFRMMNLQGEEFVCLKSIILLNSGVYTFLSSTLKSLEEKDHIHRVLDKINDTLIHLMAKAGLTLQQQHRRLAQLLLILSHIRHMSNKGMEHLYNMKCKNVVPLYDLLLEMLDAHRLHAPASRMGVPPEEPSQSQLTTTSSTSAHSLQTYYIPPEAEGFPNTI
Description: Uteri (6-10 per batch) were isolated from Brown Norway rats (250-350g), washed free from blood in saline and homogenised in 10 mM Tris buffer (pH 7.4, 1.5 mM EDTA, 10% w/v glycerol, 1 mM phenylmethylsulfonylfluoride) using an Ultra Turrax homogeniser for 3 by 15 s bursts with intervals of 1 min on ice.
Nuclear material and cellular debris were removed by centrifugation at 750×g at 4° C. for 10 min (Sorvall RT7); the cytosol component was prepared by centrifugation at 30000×g for 120 min at 4° C. in a Beckman JM1 centrifuge. The cytosol was diluted to approximately 1 mg/ml protein (rat uterine extract) determined using the Bradford method (Biorad).
Separation of bound from free radioligand was achieved by the addition of 500 μL of dextran-coated charcoal (400 mg dextran clinical grade C and 2g of charcoal, Norit A in 100 mL of Tris buffer) and centrifugation at 4° C. in a Sorval RT7 at 2000×g for 10 min.

[3] = test system: human breast tumour cell line, MCF7; experiment: Proliferation of MCF7 cells in response to 5% FCS or EGF; type: cell-based; settings: Homo sapiens, MCF7; proliferation in response to 5% FCS; pIC50 of 4.00 = inactive
Description: (§1) The effects of 4NO were evaluated in a number of non-smooth muscle cell types including the type II airway epithelial cell line, A549 (ATCC accession number ATCC CCL-185 Lung carcinoma human) (FIG. 2); the human breast tumour cell line, MCF7, (ATTC accession number ATCC HTB-22 breast adenocarcinoma, human) which expresses the estrogen receptor (FIG. 3); and in bovine aortic endothelial cells (BAEC) (FIG. 4).
(§2) The effects of test compounds were examined on proliferation of A549 cells in response to 5% fetal calf serum (FCS). Analogues were pre-incubated with A549 cells for 30 min before the addition of FCS. The incubation continued for 48 h before cell enumeration. Data are expressed as a percentage of the cell number in vehicle treated wells and are presented as the mean and standard error of the mean. Similarly the effects of 2MEO and 4NO on proliferation of MCF7 in response to 5% FCS or epidermal growth factor (EGF, 300 pM) were examined, as were the effects of 2MEO and 4NO on proliferation of BAEC in response to 5% FCS. The incubation parameters were the same as described above and results are presented as the mean and standard error of the mean.
(§3) This assay was also used to evaluate the ability of other compounds to inhibit the proliferation of non-smooth muscle cells MCF7 and A549 (described above) in response to 5% FCS. The results of this assay are presented in Table 4 (columns G and H respectively). The potency of the compounds was considerably less in inhibiting proliferation of these cell lines than it was for HASM. These observations support the contention that there are cell type-specific targets for the actions of these compounds. Such assays may also be adopted to examine the effect of other disclosed compounds on these cells or on other non-smooth muscle cells of interest.

[4] = test system: type II airway epithelial cell line, A549; experiment: Proliferation of A549 cells in response to 5% FCS; type: cell-based, human; settings: Homo sapiens
Description: as §1, §2, §3

Pulmonary fibroblasts = experiment: bFGF-induced proliferation of human pulmonary fibroblasts; type: cell-based; settings: inhibition of bFGF (300 pM)-induced proliferation, mean and SEM, minimum 3 experiments; 1 μM; * not defined
Description: Samples of parenchyma from human lung transplant recipients were dissected away from the pleura, chopped into fragments of less than 1 mm^2 and allowed to adhere to plastic culture dishes in a minimal volume of DMEM containing serum (10%) and antibiotics (as used for HASM culture). After the tissue fragments had adhered to the base of the dish additional medium was added. Medium was changed twice weekly until an explant culture formed, at which time the tissue fragments were removed and the cells were passaged in a 1:3 split ratio by exposure to trypsin weekly to produce pulmonary fibroblast cultures.
Pulmonary fibroblasts were cultured in DMEM, serum-deprived for 24 h, in the presence or absence of the test compounds, and then stimulated with 300 pM bFGF for 48 h before harvest and counting of viable cells. An increase pulmonary fibroblast cell number was prevented by 4NOM over the concentration range of 1 to 1000 nM.
A range of the disclosed compounds was subsequently examined using the above assay system, and the results are summarized in Column E of Table 4. […] The proliferation of parenchymal fibroblasts is important in the development of pulmonary fibrosis.

[5] = A549, proliferation in response to 5% FCS, pIC50 of 4.00 = inactive, read-out: A549 PIC50 (converted)
[6] = negative log of the concentration that reduces the thrombin-induced proliferative response by 50%, pIC50 of 4.00 = inactive

SMILES	HASM- Thr pIC25 [1]	HASM- Thr pIC75 [1]	HASM - GM-CSF [2]	IC50 (Estrogen Receptor (ER)) [µM]	IC50 [3] [µM]	IC50 [4, 5] [µM]	IC50 [1, 6] [µM]	pFib - bFGF (Pulmonary fibroblasts)	IC50 [1] [µM]	IC50 ([4]; A549, read-out: A549 PIC50) [µM]
COc1ccc(CON=C2CCC3C4CCc5cc(O)c(OC)cc5C4CCC23C)cc1 (centres unmarked) [CP-DM-4-34, 2-methoxyestrone-17-(4-methoxybenzyl)oxime]	4.00	4.00	29 ± 12	40.7	4.07	2.14	–	–	–	–
COc1cc2c(cc1O)CC[C@@H]1[C@@H]2CC[C@]2(C)/C(=N/OCc3cccc([N+](=O)[O-])c3)CC[C@@H]12 [CP-DM-3-104, 2-methoxyestrone-17-(3-nitrobenzyl)oxime]	7.16	5.02	–	–	8.51	–	0.55	–	–	–
COc1cc2c(cc1O)/C(=N/OCc1ccncc1)C[C@@H]1[C@@H]2CC[C@]2(C)/C(=N/O)CC[C@@H]12 [CP-DM-4-15, 2-methoxy-6-(4-pyridylmethyloxy)iminoestrone-17-oxime]	–	–	34 ± 11*	12.6	10	–	3.39	–	–	–
CO/N=C1\CC[C@H]2[C@@H]3C/C(=N\OCc4cc(F)cc(F)c4)c4cc(O)c(OC)cc4[C@H]3CC[C@]12C [CP-DM-4-74, 6-(3,5difluorobenzyloxy)imino-2-methoxyestrone-17-methyloxime]	6.59	5.34	11 ± 8	–	10	–	1.15	5 ± 9	–	–
COc1cc2c(cc1O)/C(=N/Nc1ccc([N+](=O)[O-])cc1[N+](=O)[O-])C[C@@H]1[C@@H]2CC[C@]2(C)/C(=N/O)CC[C@@H]12 [CP-DM-3-119, 2-methoxy-6-(2,4-dinitrophenylhydrazono)estrone-17-oxime]	–	–	–	–	–	–	–	17 ± 14	3.31	15.8
COc1ccc(CO/N=C2\C[C@@H]3[C@H](CC[C@]4(C)/C(=N/O)CC[C@@H]34)c3cc(OC)c(O)cc32)cc1 [CP-DM-4-6, 2-methoxy-6-(4-methoxybenzyloxy)-iminoestrone-17-oxime]	9.57	4.94	28 ± 10*	45.7	2.29	7.76	0.117	–	–	–
C[C@]12CC[C@@H]3c4ccc(O)cc4CC[C@H]3[C@@H]1CC/C2=N\OCc1ccc([N+](=O)[O-])cc1 [CP-DM-3-101, estrone-17-(4-nitrobenzyl)oxime]	6.27	5.06	–	2.4	12.6	–	1.91	–	–	–
COc1ccc(CO/N=C2\CC[C@H]3[C@@H]4CCc5cc(O)ccc5[C@H]4CC[C@]23C)cc1 [CP-DM-4-33, estrone-17-(4-methoxybenzyl)oxime]	7.12	5.03	–	0.11	3.16	9.12	1.35	–	–	–
